These results are taken from patent publication US20080051431A1, “Methods and compositions using immunomodulatory compounds in combination therapy” (priority 2006, published 2008).

For data set [1] the following is noted: cited from earlier work; for conversion upon heating (desolvation experiments): Form E: about 125° C. for about five minutes, Form B: 175° C. for about five minutes; for interconversion in solvent systems or at higher relative humidity: interconversion studies; for hygroscopicity: polymorphic form of 3-(4-amino-1-oxo-1,3 dihydro-isoindol-2-yl)-piperidene-2,6-dione; for relative stability among polymorphs: Form A: among anhydrous polymorphs, Form E: in aqueous solvent systems.

The test system of data set [2] is Namalwa cells (human Burkitt Lymphoma). The experiment in a line: Namalwa cell proliferation (cell count by flow cytometry; BrDu incorporation). Format: cell-based. The conditions noted are these: 3 days; for effect of combination with VPA on cell proliferation arrest: FIGS. 3 and 5. The method, then:
(§1) Namalwa were cultured in RPMI-1640 media (Invitrogen, Carlsbad) supplemented with 10% fetal bovine serum, penicillin (100 u/ml) and streptomycin (100 μg/ml). CD34^+ cells were expanded in serum free conditions in Iscove's DMEM (Invitrogen, Carlsbad, Calif.) supplemented with 20% serum substitute BIT (StemCell Techologies, Vancouver, BC) in the presence of SCF (100 ng/ml), Flt3-L (100 ng/ml) and IL-3 (20 ng/ml) (Biosource International, Camarillo, Calif.). Namalwa cells and CD34+ cells were cultured for 3 and 6 days, respectively. DMSO 0.1%, Comp. 1 or Comp. 2, valproic acid (VPA) or trichostatin A (TSA) at the concentration indicated were added during the 3 or 6 days of culture. BM-CD34+ cells were cultured in Iscove's MDM with BIT 95000 (StemCell technologies) in the presence of growth factors. During the first 6 days CD34^+ cells were expanded with SCF (100 ng/ml), Flt3-L (100 ng/ml), and IL-3 (20 ng/ml) and then differentiated toward the erythroid lineage by culture with SCF (50 ng/ml) and EPO (2U or 4 U/ml) for 6 days. To study the effect of immunomodulatory compounds, CD34^+ progenitor cells were differentiated for a period of 6 days in the presence or absence of Comp. 1, Comp. 2 or hydroxyurea (HU).
(§2) Namalwa and CD34^+ cells were plated at 4000 and 2000 cells per well, respectively into 96-well plate and treated with compound. After the time indicated, cells were counted and phenotypically analyzed by flow cytometry using the FACSarray. The percentage of apoptotic cells and CD34^+ cells were monitored using Propidium iodide staining (BD pharmingen, Chicago, Ill.) and the antibody anti-CD34 (PE-conjugated) (BD pharmingen), respectively, according to the manufacturer experimental procedure.
Namalwa cells were plated at 10,000 cells per well in 96 well plates and treated with TSA and Comp. 1 at the concentration indicated for 3 days. The effects of TSA and Comp. 1 on cell proliferation were measured using BrDu incorporation kit (Roche, Germany).

The test system is the same in data set [3]. The experiment in a line: Namalwa cell apoptosis (Propidium iodide staining, flow cytometry). Format: cell-based. The conditions noted are these: 3 days; for effect of combination with VPA on inducing apoptosis: FIGS. 4 and 6. The method, then:
as §1, §2

The test system of a further data set is cord blood CD34+ cells. The experiment in a line: Expansion of cord blood-derived CD34+ cells (cell count and anti-CD34 flow cytometry). Format: cell-based. The conditions noted are these: for effects of combination with TSA on CD34+ expansion, CD34+ cell number / effects of combination with TSA on CD34+ expansion, percent of CD34+ cells / effects of combination with VPA on CD34+ expansion, CD34+ cell number / effects of combination with VPA on CD34+ expansion, percent of CD34+ cells / number of CD34+ cells / percent of CD34+ cells: after 6 days of culture; for effects of combination with TSA on CD34+ expansion, CD34+ cell number: FIGS. 7 and 9; for effects of combination with TSA on CD34+ expansion, percent of CD34+ cells: FIGS. 8 and 10; for effects of combination with VPA on CD34+ expansion, CD34+ cell number: FIGS. 11 and 13; for effects of combination with VPA on CD34+ expansion, percent of CD34+ cells: FIGS. 12 and 14; for number of CD34+ cells / percent of CD34+ cells: compound alone, in a dose dependent manner; for kind of combination effect with VPA on CD34+ expansion (number and percent): tables in FIGS. 11-14. The method, then: as §1, §2

Data set [4] deals with CD34+ hematopoietic stem cells from a healthy donor. The experiment in a line: Fetal hemoglobin expression in CD34+ cells from a healthy donor differentiated towards erythrocytes. The class given is cell-based. Particulars: for percentage of HbF expressing cells: compound alone, healthy donor, after 6 days of culture, in a dose dependent manner; for effect of combination with HU on HbF expression: healthy (normal) donor, HU at 10 μM added to the growth cocktail, 6 days, FIG. 15. The method, then:
as §1
(§3) After 6 days of culture, cells were washed with phosphate-buffered saline (PBS), fixed with 2% paraformaldehyde, permeabilized with cytopermeafix (BD-pharmingen), stained with HbF-PE (BD Pharmingen, San Diego, Calif.) and analyzed by flow cytometry (FACSAria, BD pharmingen).

For data set [5], the system named is CD34+ cells from sickle cell anemic patient (SCA). The experiment in a line: Fetal hemoglobin expression in CD34+ cells from sickle cell anemic patient differentiated towards erythrocytes. The class given is cell-based. The method, then:
Namalwa CSN.70 cells were purchased from DSMZ (Brauschweig, Germany). Bone marrow and cord blood CD34^+ cells were purchased Cambrex (Walkersville, Md.) and AllCells (Emeryville, Calif.), respectively. Bone marrow CD34+ cells from Sickle Cell Anemic (SCA) patient were provided by Christopher Morris (Loma Linda University Medical Center, CA).
Namalwa were cultured in RPMI-1640 media (Invitrogen, Carlsbad) supplemented with 10% fetal bovine serum, penicillin (100 u/ml) and streptomycin (100 μg/ml). CD34^+ cells were expanded in serum free conditions in Iscove's DMEM (Invitrogen, Carlsbad, Calif.) supplemented with 20% serum substitute BIT (StemCell Techologies, Vancouver, BC) in the presence of SCF (100 ng/ml), Flt3-L (100 ng/ml) and IL-3 (20 ng/ml) (Biosource International, Camarillo, Calif.). Namalwa cells and CD34+ cells were cultured for 3 and 6 days, respectively. DMSO 0.1%, Comp. 1 or Comp. 2, valproic acid (VPA) or trichostatin A (TSA) at the concentration indicated were added during the 3 or 6 days of culture. […]
as §3

Entries after “also recorded” stand apart in the source; their conditions may differ.

Turning to `Nc1cccc2c1CN(C1CCC(=O)NC1=O)C2=O` (stereo not drawn) [Form B, 3-(4-amino-1-oxo-1,3 dihydro-isoindol-2-yl)-piperidene-2,6-dione], in data set [1], the “conversion upon heating (desolvation experiments)” value is “can convert to Form F”; the “interconversion in solvent systems or at higher relative humidity” value (from here on “interconversion … at higher relative humidity”) was “converts to Form E in aqueous solvent systems, and converts to other forms in acetone and other anhydrous systems”.

As to `Nc1cccc2c1CN(C1CCC(=O)NC1=O)C2=O` (stereo not drawn) [Form D, 3-(4-amino-1-oxo-1,3 dihydro-isoindol-2-yl)-piperidene-2,6-dione], in data set [1], the “interconversion … at higher relative humidity” value was “convert to Form B when stressed at higher relative humidities” and the hygroscopicity result is listed as “either weakly or not hygroscopic”.

With `Nc1cccc2c1CN(C1CCC(=O)NC1=O)C2=O` (stereo not drawn) [Form C, 3-(4-amino-1-oxo-1,3 dihydro-isoindol-2-yl)-piperidene-2,6-dione], in data set [1], the “interconversion … at higher relative humidity” value is listed as “can convert to Form B at higher relative humidities” and the hygroscopicity result is reported as “not hygroscopic below about 85% RH”.

Turning to `Nc1cccc2c1CN(C1CCC(=O)NC1=O)C2=O` (stereo not drawn) [Form A, 3-(4-amino-1-oxo-1,3 dihydro-isoindol-2-yl)-piperidene-2,6-dione], in data set [1], the “relative stability among polymorphs” value is on record as “most thermodynamically stable anhydrous polymorph” and the hygroscopicity result is given as “weakly or not hygroscopic”.

For the compound `Nc1cccc2c1CN(C1CCC(=O)NC1=O)C2=O` (stereo not drawn) [Compound 2, 3-(4-amino-1-oxo-1,3-dihydro-isoindol-2-yl)-piperidine-2,6-dione], the “effect of combination with VPA on cell proliferation arrest” value in data set [2] was “synergistic and additive; also recorded: additive and synergistic”. Besides, in data set [3], the “effect of combination with VPA on inducing apoptosis” value is “synergistic and additive; also recorded: additive and synergistic”. In the data set with cord blood CD34+ cells (TSA at 1 and 10 nM added to the growth cocktail, 6 days), the “effect of the addition of TSA on the compound's effect on CD34+ expansion” value is “significantly improved”. Besides, in the data set on cord blood CD34+ cells (VPA at 0.1 and 0.3 mM added to the growth cocktail, 6 days), the “effect of the addition of VPA on the compound's effect on CD34+ expansion” value is reported as “significantly improved”. Moreover, in the data set on cord blood CD34+ cells, the “effects of combination with TSA on CD34+ expansion, CD34+ cell number” value was “additive and synergistic”; the “effects of combination with TSA on CD34+ expansion, percent of CD34+ cells” value was “additive and synergistic”; the “effects of combination with VPA on CD34+ expansion, CD34+ cell number” value is “additive and synergistic”; the “effects of combination with VPA on CD34+ expansion, percent of CD34+ cells” value was “additive and synergistic”. In the data set with cord blood CD34+ cells, the “number of CD34+ cells” value is reported as “increased” and the “percent of CD34+ cells” value is reported as “increased”. Also, the “kind of combination effect with VPA on CD34+ expansion (number and percent)” value with cord blood CD34+ cells (6 days) was “additive to Compound 2, and in some conditions, a synergistic effect was observed”. Besides, in data set [4], the “percentage of HbF expressing cells” value was “increased”; the “effect of combination with HU on HbF expression” value (“effect of combination with HU” for short) was “significantly improved the effect of Compound 1 and Compound 2 on HbF expression in a synergistic manner”.

Consider `Nc1cccc2c1C(=O)N(C1CCC(=O)NC1=O)C2=O` (stereo not drawn) [Compound 1, 4-(amino)-2-(2,6-dioxo(3-piperidyl))-isoindoline-1,3-dione], for which the “effect of combination with VPA on cell proliferation arrest” value in data set [2] was “synergistic and additive; also recorded: additive and synergistic”. For the same compound, the “effect of combination with TSA on cell proliferation arrest” value in data set [2] (TSA at 10 nM, FIG. 1) was “synergistic and additive”. Moreover, the “effect of combination with VPA on inducing apoptosis” value in data set [3] is “synergistic and additive; also recorded: additive and synergistic”. For the same compound, in data set [3] (TSA at 10 nM, FIG. 2), the “effect of combination with TSA on inducing apoptosis” value was “synergistic and additive”. Moreover, the “effect of the addition of TSA on the compound's effect on CD34+ expansion” value in the data set on cord blood CD34+ cells (TSA at 10 nM added to the growth cocktail, 6 days) is on record as “significantly improved”. The “effect of the addition of VPA on the compound's effect on CD34+ expansion” value with cord blood CD34+ cells (VPA at 0.1, 0.3 and 1 mM added to the growth cocktail, 6 days) is “significantly improved”. Also, in the data set on cord blood CD34+ cells, the “effects of combination with TSA on CD34+ expansion, CD34+ cell number” value was “additive and synergistic”; the “effects of combination with TSA on CD34+ expansion, percent of CD34+ cells” value is “additive and synergistic”; the “effects of combination with VPA on CD34+ expansion, CD34+ cell number” value is “additive and synergistic”; the “effects of combination with VPA on CD34+ expansion, percent of CD34+ cells” value was “additive and synergistic”. For the same compound, in the data set with cord blood CD34+ cells, the “number of CD34+ cells” value was “increased” and the “percent of CD34+ cells” value is given as “increased”. Also, in the data set with cord blood CD34+ cells (tables in FIGS. 7-10, which belong to the TSA experiments, 6 days), the “kind of combination effect on CD34+ expansion (number and percent), partner printed as VPA” value is “additive to Compound 1, and in some conditions, a synergistic effect was observed”. In addition, the “kind of combination effect with VPA on CD34+ expansion (number and percent)” value with cord blood CD34+ cells (6 days) was “additive to Compound 1, and in some conditions, a synergistic effect was observed”. For the same compound, in data set [4], the “percentage of HbF expressing cells” value is listed as “increased”; the “effect of combination with HU” value was “significantly improved the effect of Compound 1 and Compound 2 on HbF expression in a synergistic manner”. The “effect of combination with HU” value in data set [5] (HU at 10 μM added to the growth cocktail, 6 days, FIG. 16) was “significantly improved the effect of Compound 1 on HbF expression in a synergistic manner”. Moreover, the “percentage of HbF expressing cells” value in data set [5] (compound alone, after 6 days of culture, in a dose dependent manner) is reported as “increased”.

In the case of `Nc1cccc2c1CN(C1CCC(=O)NC1=O)C2=O` (stereo not drawn) [Form E, 3-(4-amino-1-oxo-1,3 dihydro-isoindol-2-yl)-piperidene-2,6-dione], in data set [1], the “relative stability among polymorphs” value is “most stable form”; the “conversion upon heating (desolvation experiments)” value is listed as “can convert to Form B”; the “interconversion … at higher relative humidity” value is “can convert to Form C in an acetone solvent system and to Form G in a THF solvent system”.
